# Columns and labels:
# [1] = system: Zucker Diabetic Fatty (ZDF) rats; assay: oral glucose tolerance test in ZDF rats; assay type: in vivo, rat; settings: male ZDF rats, single oral dose 30 min before 2 g/kg oral glucose; linagliptin 1 mg/kg, compound (I.3) 3 mg/kg, combination at the same doses; versus control
# Experimental: According to a first example an oral glucose tolerance test is performed in overnight fasted 9-weeks old male Zucker Diabetic Fatty (ZDF) rats (ZDF/Crl-Lepr^fa). A pre-dose blood sample is obtained by tail bleed. Blood glucose is measured with a glucometer, and the animals are randomized for blood glucose (n=5/group). Subsequently, the groups receive a single oral administration of either vehicle alone (0.5% aqueous hydroxyethylcellulose containing 3 mM HCl and 0.015% Polysorbat 80) or vehicle containing either the SGLT2 inhibitor or the DPPIV inhibitor or the combination of the SGLT2 inhibitor plus the DPP IV inhibitor plus. The animals receive an oral glucose load (2 g/kg) 30 min after compound administration. Blood glucose is measured in tail blood 30 min, 60 min, 90 min, 120 min, and 180 min after the glucose challenge. Glucose excursion is quantified by calculating the reactive glucose AUC. The data are presented as mean±SEM. The two-sided unpaired Student t-test is used for statistical comparison of the control group and the active groups.
# “Cpd. A” is linagliptin at a dose of 1 mg/kg. Cpd. B is the compound (I.3), i.e. 1-chloro-4-(β-D-glucopyranos-1-yl)-2-[4-((S)-tetrahydrofuran-3-yloxy)-benzyl]-benzene, at a dose of 3 mg/kg. Combination A+B is the combination of linagliptin and the compound (I.3) at the same doses. P-values versus control are indicated by symbols above the bars. […]
# [2] = compatibility with / degradation of linagliptin in the composition; assay type: physicochemical; settings: combined with a glucopyranosyl-substituted benzene derivative of the formula (I), in particular the compound (I.3)
# Experimental: Preferably the excipients are chosen such that they are compatible with linagliptin, i.e. such that there is no or only marginal degradation of linagliptin in the pharmaceutical composition. The degradation can be tested in standard tests, for example after a 6 months storage at 40° C. and 75% relative humidity. In this context the term “marginal degradation” shall mean a chemical degradation of linagliptin of less than 5%, preferably less than 3%, even more preferably less than 2% by weight of linagliptin. The content and thus the degradation can be determined by well-known analytical methods, for example using HPLC or UV methods.
# [3] = metformin on its own, in the diabetic; cited from earlier work
Structure (SMILES),reduction of glucose excursion (reactive glucose AUC) in oral glucose tolerance test [1] [%],degradation of linagliptin [2],average improvement in the HbA1c value [3]
"CC#CCn1c(N2CCC[C@@H](N)C2)nc2c1c(=O)n(Cc1nc(C)c3ccccc3n1)c(=O)n2C [Linagliptin, linagliptin]",56,does not show or shows only marginal degradation,
"OC[C@H]1O[C@@H](c2ccc(Cl)c(Cc3ccc(O[C@H]4CCOC4)cc3)c2)[C@H](O)[C@@H](O)[C@@H]1O [compound (I.3), 1-chloro-4-(β-D-glucopyranos-1-yl)-2-[4-((S)-tetrahydrofuran-3-yloxy)-benzyl]-benzene]",51,,
CN(C)C(=N)N=C(N)N [metformin],,,1.0-1.5%

# — US20220331326A1, “PHARMACEUTICAL COMPOSITION, PHARMACEUTICAL DOSAGE FORM, PROCESS FOR THEIR PREPARATION, METHODS FOR TREATING AND USES THEREOF” (Boehringer Ingelheim International GmbH, priority 2009, published 2022)
